In ChEMBL document CHEMBL3885861, “Open TG-GATES”:

Species on record: Rattus norvegicus
Experiment: Open TG-GATES - Regimen: Daily Repeat
Assay type: toxicity, organism-based, Sprague-Dawley
Design: regimen Daily Repeat, gender Male, age 6 weeks
Conditions: in vivo, po, route gavage; for Bas / Eos / Fbg / Ht / Lym / MCHC / MCV / Mono / PT / Plat / RBC / Ret / WBC / Neu: tissue Blood; for KIDNEY_L / KIDNEY_R / KIDNEY_TOTAL: tissue Kidney; for ALT / AST / CRE / Ca / DBIL / GLC / IP / K / LDH / Na / PL / RALB / TBIL / TC / TG / TP / gamma-GTP / BUN / Cl: tissue Plasma
[1] = 240 mg/kg, 72 h, dose level Middle, time 3 day
[2] = 240 mg/kg, […], dose level Middle, time 7 day
[3] = 240 mg/kg, […], dose level Middle, time 14 day
[4] = 240 mg/kg, […], dose level Middle, time 28 day

COc1ccc([C@@H]2Sc3ccccc3N(CCN(C)C)C(=O)[C@@H]2OC(C)=O)cc1 [DILTIAZEM]
Bas [1]: 0.2%
Eos [1]: 1%
Fbg [1]: 294.4 mg/dL
Ht [1]: 40.4%
Lym [1]: 71.6%
MCHC [1]: 32.8%
MCV [1]: 65.7 fL
Mono [1]: 3.4%
PT [1]: 13.8 s
Plat [1]: 118.5 x10_4/uL
RBC [1]: 614.8 x10_4/ul
Ret [1]: 8.8%
WBC [1]: 106.5 x10_2/uL
KIDNEY_L [1]: 1 g
KIDNEY_R [1]: 1 g
KIDNEY_TOTAL [1]: 2 g
ALT [1]: 50 IU/L
AST [1]: 67.4 IU/L
CRE [1]: 0.2 mg/dL
Ca [1]: 11.3 mg/dL
DBIL [1]: 0.02 mg/dL
GLC [1]: 183 mg/dL
IP [1]: 8.1 mg/dL
K [1]: 3.9 meq/L
LDH [1]: 81.8 IU/L
Na [1]: 144 meq/L
PL [1]: 153.8 mg/dL
RALB [1]: 2.7 g/dL
TBIL [1]: 0.024 mg/dL
TC [1]: 87.6 mg/dL
TG [1]: 99.4 mg/dL
TP [1]: 5.6 g/dL
gamma-GTP [1]: 1.2 IU/L
TERMINAL_BW [2]: 251.4 g
TERMINAL_BW [3]: 321.6 g
TERMINAL_BW [4]: 419 g
Bas [2]: 0%
Eos [2]: 0.8%
Fbg [2]: 301.4 mg/dL
Ht [2]: 41%
Lym [2]: 75.2%
MCHC [2]: 32.9%
MCV [2]: 63.6 fL
Mono [2]: 2.6%
Neu [2]: 20.6%
PT [2]: 13.9 s
Plat [2]: 129.2 x10_4/uL
RBC [2]: 644.6 x10_4/ul
Ret [2]: 7%
WBC [2]: 72.6 x10_2/uL
Bas [3]: 0.6%
Eos [3]: 0.8%
Fbg [3]: 336.4 mg/dL
Ht [3]: 42.8%
Lym [3]: 73%
MCHC [3]: 33.1%
MCV [3]: 61.7 fL
Mono [3]: 2.6%
Neu [3]: 22.2%
PT [3]: 14.1 s
Plat [3]: 131.9 x10_4/uL
RBC [3]: 693.6 x10_4/ul
Ret [3]: 5.6%
WBC [3]: 112.7 x10_2/uL
Bas [4]: 0.2%
Eos [4]: 1.4%
Fbg [4]: 305.4 mg/dL
Ht [4]: 45.7%
Lym [4]: 69%
MCHC [4]: 34.4%
MCV [4]: 58.1 fL
Mono [4]: 2.4%
Neu [4]: 26.6%
PT [4]: 13.9 s
Plat [4]: 109.1 x10_4/uL
RBC [4]: 786.8 x10_4/ul
Ret [4]: 2.5%
WBC [4]: 119 x10_2/uL
KIDNEY_L [2]: 1.1 g
KIDNEY_R [2]: 1 g
KIDNEY_TOTAL [2]: 2.1 g
KIDNEY_L [3]: 1.3 g
KIDNEY_R [3]: 1.4 g
KIDNEY_TOTAL [3]: 2.7 g
KIDNEY_L [4]: 1.5 g
KIDNEY_R [4]: 1.5 g
KIDNEY_TOTAL [4]: 3 g
ALT [2]: 38.6 IU/L
AST [2]: 61.6 IU/L
BUN [2]: 15 mg/dL
CRE [2]: 0.2 mg/dL
Ca [2]: 11.4 mg/dL
Cl [2]: 105.8 meq/L
DBIL [2]: 0.01 mg/dL
GLC [2]: 190.6 mg/dL
IP [2]: 8.2 mg/dL
K [2]: 3.9 meq/L
LDH [2]: 97.2 IU/L
Na [2]: 144.2 meq/L
PL [2]: 155 mg/dL
RALB [2]: 2.8 g/dL
TBIL [2]: 0.016 mg/dL
TC [2]: 81.2 mg/dL
TG [2]: 117 mg/dL
TP [2]: 5.9 g/dL
gamma-GTP [2]: 1.2 IU/L
ALT [3]: 44.4 IU/L
AST [3]: 67.8 IU/L
BUN [3]: 14.8 mg/dL
CRE [3]: 0.2 mg/dL
Ca [3]: 11 mg/dL
DBIL [3]: 0.012 mg/dL
GLC [3]: 194.4 mg/dL
IP [3]: 7.6 mg/dL
K [3]: 4 meq/L
LDH [3]: 80 IU/L
Na [3]: 144.4 meq/L
PL [3]: 165.4 mg/dL
RALB [3]: 2.8 g/dL
TBIL [3]: 0.014 mg/dL
TC [3]: 84.2 mg/dL
TG [3]: 125.4 mg/dL
TP [3]: 6.1 g/dL
gamma-GTP [3]: 1.4 IU/L
ALT [4]: 43.8 IU/L
AST [4]: 64.2 IU/L
BUN [4]: 17.2 mg/dL
CRE [4]: 0.2 mg/dL
Ca [4]: 11.3 mg/dL
Cl [4]: 108.6 meq/L
DBIL [4]: 0.012 mg/dL
GLC [4]: 188.6 mg/dL
IP [4]: 7 mg/dL
K [4]: 4 meq/L
LDH [4]: 82.6 IU/L
Na [4]: 146.6 meq/L
PL [4]: 168.8 mg/dL
RALB [4]: 3 g/dL
TBIL [4]: 0.014 mg/dL
TC [4]: 85.2 mg/dL
TG [4]: 163.4 mg/dL
TP [4]: 6.6 g/dL
gamma-GTP [4]: 1 IU/L
TERMINAL_BW (800 mg/kg, 72 h, dose level High, time 3 day): 201.2 g
